The test system of series [1] is bone marrow-derived macrophages (BMDMs). In words: Cell viability, CCK8 assay, BMDMs. Format: cell-based, C57BL/6 mice. Particulars: CCK8, 0.1-100 μM, 20 h. The protocol: (§1) RAW264.7 cells, a mouse macrophage cell line, were cultured in DMEM medium containing 10% fetal bovine serum (FBS), 1% penicillin-streptomycin and maintained at 37 °C in 5% CO2 humidified air. Bone marrow-derived macrophages (BMDMs) generation was performed as following description. In brief, bone marrow cells were harvested from tibias and femurs of C57BL/6 mice and differentiated for 7 days in DMEM medium supplemented with 10% FBS, 1% penicillin-streptomycin and 50 ng/ml M-CSF. For human peripheral blood mononuclear cells (PBMCs) preparation, 5 ml peripheral venous blood was obtained from healthy donors in West China Hospital. PBMCs were isolated with Human Lymphocyte Separation Medium (LTS1077, Tian Jing, China) according to the manufacturer’s instructions. The experimental protocols were performed according to the approved guidelines established by the Institutional Human Research Subject Protection Committee of the Ethics Committee of West China Hospital, Sichuan University, China.
(§2) The effects of EFL2 on RAW264.7 cells, BMDMs and PBMCs viability were evaluated by Cell Counting Kit-8 (CCK8) assay (Dojindo, Japan). […] The optical absorbance at 450 nm was read with a Biotek Eon™ microplate reader (Biotek, Vermont, United States).
(Tetrazolium assays rely on reduction of a dye to a coloured formazan, in cell work by metabolically active cells.)

Another series relates to PBMCs. In words: Cell viability, CCK8 assay, PBMCs. Type of series: cell-based, human. To be noted: CCK8, at 100 μM. The method, then:
as §1, §2

The subject of series [2] is IL-1β and IL-6 in the ankle. The series is described as follows: Immunochemistry staining for IL-1β and IL-6 in ankles. Type of series: in vivo, C57BL/6 mice. Particulars: STA mice; EFL2 15 or 40 mg/kg. The protocol:
The dissected left ankles were fixed in 4% formaldehyde overnight. Embedding, de-paraffinization, and re-hydration of the ankle sections were the same as described for H&E staining. After treated with 3% […] for 10 min, the tissue sections were immersed in a 10 mM sodium citrate buffer (pH 6.0) for 15 min at 95°C, and washed with PBS. The sections were then blocked with 5% goat serum in PBS, and incubated with primary antibodies overnight at 4°C. Primary antibodies were as follows: rabbit anti-mouse IL-1β (1:600, Abcam, China); rabbit anti-mouse IL-6 (1:50, Abcam, China). The signal was visualized using an Envision System (DAKO, United States). The images were then acquired by microscopy (Leica DMil).

Series [3] concerns TLR7 (R837) / TLR3 (poly:IC) induced cytokine production in BMDMs. The series is described as follows: ELISA of IL-1β and IL-6 in supernatant of R837 and/or poly:IC stimulated BMDMs. Type of series: cell-based, C57BL/6 mice. The method, then:
as §1
RAW264.7 cells (5×10^5/ml), BMDMs (5×10^5/ml) and PBMCs (2×10^6/ml) were plated in 96-well plates and incubated overnight. […] For the anti-inflammatory molecular mechanism study, RAW264.7 cells (5×10^5/ml) were plated in 96-well plates and stimulated with R837 (20 μg/ml) with or without the addition of NF-κB inhibitor (JSH-23, […]) for 24 h. After 24 h, the culture supernatant was collected for cytokines measurements.
IL-4, IL-17A and TNF-α in sera from different group mice were measured using CBA Multiplex kit (BD, United States). The concentrations of IL-1β and IL-6 in serum or supernatant were detected by ELISA Kit (MULTI SCIENCES, China) according to the manufacturers’ instructions.
(In general: ELISA stands for enzyme-linked immunosorbent assay.)

The test system of a further series is RAW264.7 cells. The series is described as follows: Cell viability, CCK8 assay, RAW264.7. Format: cell-based, mouse. To be noted: CCK8, 0.1-100 μM, 20 h. The protocol: as §1, §2
A short description of series [4]: In vivo pharmacokinetic study, plasma UPLC-MS. Set-up: species or system C57BL/6 mice. To be noted: for Cmax: 40 mg/kg. The method, then:
Prior to the pharmacokinetic study, 12 male C57BL/6 mice were fasted for 12 h with free access to water, and then treated by intraperitoneal injection of EFL2 at a dose of 40 mg/kg. About 50 μL blood samples were collected via the oculi chorioideae vein at 0.5, 1, 2, 4, 8, 12, 24, 72, 96, and 168 h, respectively. After centrifugation at 5,000 rpm for 10 min, plasma samples were obtained and frozen at −80°C until analysis. The pharmacokinetic parameters of EFL2 were calculated using WinNolin 4.0.1 software.
20 μL plasma samples were spiked with 340 μL acetonitrile by vortex mixing for 30 s. The mixture was then centrifuged at 10,000 rpm for 5 min at 4°C to separate the precipitated protein. An aliquot of 50 μL supernatant was transferred to a fresh tube and spiked with 450 μL mobile phase (acetonitrile containing 0.1% formic acid). After centrifugation at 13,000 rpm for 5 min, 3 μL supernatant was injected into Agilent 6,495 Triple Quadrupole LC/MS/MS system for each time. Then, the concentration of EFL2 was determined.
An Agilent 1,200 series UPLC system (Agilent Technologies, Waldbronn, Germany) equipped with an 6,495 quadruple mass spectrometer (Agilent Technologies, Santa Clara, CA, United States) were used for pharmacokinetic study. The separation was carried out with Waters Acquity UPLC BEH C18 column (2.1 × 50 mm, 1.7 μm) at a constant temperature of 30 °C. The mobile phase was composed of aqueous solution (0.1% formic acid, A) and acetonitrile (containing 0.1% formic acid, B) and the program of the mobile phase was as follows: 0 min, 40% B; 1 min, 40% B; 1.5 min, 80% B; 2.5 min, 90% B; 4 min, 90% B; 4.1 min, 40% B; 6 min, 40% B, at a flow rate of 0.3 ml/min. The mass spectra were acquired using a triple quadrupole mass spectrometer with ESI ion source in positive mode. The ionization conditions were as follows: drying gas temperature (N2), 300°C; gas flow, 11 L/min (N2); nebulizer pressure, 35 psi (N2). An Agilent Mass Hunter workstation was used for data processing.

For series [5], the system named is SMMC-7721 and Hep G2 cells. Set-up: method as in Fan et al., 2019. To be noted: via STAT3 phosphorylation; ref Fan et al., 2019; cited from earlier work.
The mark [6] stands for this setting: male, C57BL/6, mouse, ip, mice, 40 mg/kg intraperitoneal injection, plasma.

We go through 1 compound from publication PMC8691750, “Euphorbia Factor L2 ameliorates the Progression of K/BxN Serum-Induced Arthritis by Blocking TLR7 Mediated IRAK4/IKKβ/IRF5 and NF-kB Signaling Pathways” (Frontiers in Pharmacology, 2021).

Molecules are shown by their SMILES.

Broadly, the AUC(0-inf) is the area under the concentration-time curve extrapolated to infinity. Lower therefore signals low exposure. By AUC(0-t) is commonly meant the area under the concentration-time curve up to a stated or last time point. A high value points to high exposure. Usually Tmax stands for the time at which the peak concentration occurs. As usually defined, the half-life is the time in which the quantity being followed falls by half. A lower half-life goes with rapid decline. Usually Cmax stands for the maximum level reached in the sampled fluid or tissue. As for `C=C1C(OC(=O)c2ccccc2)CC2C(C=C(C)C(=O)C3(OC(C)=O)CC(C)C(OC(=O)c4ccccc4)C3C1OC(C)=O)C2(C)C` (centres unmarked) [EFL2, Euphorbia factor L2], the “concentration at which significant cytotoxicity is displayed” value in series [1] was at least 25 µM. In addition, the PBMCs viability result in the series with PBMCs is “did not affect”. The “IL-1β and IL-6 production in local inflamed joints (immunohistochemical staining)” value in series [2] was “could inhibit”. Also, in series [3] (BMDMs co-stimulated by poly (I:C) and R837, various concentrations of EFL2), the “levels of IL-1β and IL-6 in the supernatant” value was “to different expent decreased”. Further, the IL-6 production result in series [3] (R837-stimulated BMDMs, EFL2 0.1-10 μM) is listed as “dose-dependently reduced”. For the same compound, the IL-1β secretion result in series [3] (R837-stimulated BMDMs, EFL2 at 0.1 μM) is listed as “effectively inhibit”. Also, in the series on RAW264.7 cells, the “concentration at which significant cytotoxicity is displayed” value was at least 25 µM. In series [4] (based on Cmax and molecular weight (MW = 642.6)), the “peak concentration in sera” value was 7.03 µM. Besides, in series [4] (setting [6]), the AUC(0-inf) was found to be 379 ± 166 µg·h/mL, the AUC(0-t) amounted to 374 ± 164 µg·h/mL, the Tmax was found to be 2.5 ± 1.73 h and the half-life was 21.2 ± 7.11 h. Also, the MRT last in series [4] (male, C57BL/6, mouse, ip, mice, 40 mg/kg intraperitoneal injection, plasma, read-out: MRT0-t) amounted to 59.2 ± 2.75 h. The MRT inf in series [4] (male, C57BL/6, mouse, ip, mice, 40 mg/kg intraperitoneal injection, plasma, read-out: MRT0-∞) was found to be 61.4 ± 3.7 h. Also, the concentration in series [4] (male, C57BL/6, mouse, plasma, ip, mice, 40 mg/kg i.p.) peaked (Cmax) at 4520 ± 1630 ng/mL. For the same compound, the Cmax in series [4] (male, C57BL/6, mouse, plasma, ip, mice, 40 mg/kg intraperitoneal injection) is 4530 ng/mL. Also, in series [5], the “SMMC-7721 and Hep G2 cells proliferation and migration” value is on record as “suppressing”.
